According to patent US20080175900A1, “PHARMACEUTICAL FORMULATIONS OF AN ANHYDRATE CRYSTAL FORM OF 2-(3-FLUORO-4-HYDROXYPHENYL)-7-VINYL-1,3-BENZOXAZOL-5-OL” (WYETH, priority 2006, published 2008):

Test: Conversion of the crystal form when suspended and stirred in a solvent at room temperature
Type: physicochemical
From the text: The anhydrate crystal form (Form B) can be converted to other crystal forms under suitable conditions. […] 6, 2006).

crystal form obtained after suspending and stirring in water (suspended and stirred in water at room temperature for three days): a hydrate crystal form is obtained
SMILES: C=Cc1cc(O)cc2nc(-c3ccc(O)c(F)c3)oc12 [Form B, 2-(3-fluoro-4-hydroxyphenyl)-7-vinyl-1,3-benzoxazol-5-ol]
crystal form obtained after suspending and stirring in ethanol (suspended and stirred in ethanol at room temperature for three days): another anhydrate crystal form is obtained
crystal form obtained after suspending and stirring in methanol (suspended and stirred in methanol at room temperature for one day): another anhydrate crystal form is obtained
